From publication PMC9233935 (Journal of medicinal chemistry, 2022)
≈ marks a conversion by molar mass, not a printed value.

Tests used:
S. aureus ATTC 25923 [1] = experiment: microbe, parasite or virus in culture; details: Staphylococcus aureus, ATTC25923, read-out: Sau MIC
[2] = tested on: gyrA hypomorph (gyrA-FDAS-TetON-1); assay type: cell-based; details: fold-hypersensitivity
Mtb gyrase = Mtb gyrase (Mycobacterium tuberculosis, UniProt P9WG45+P9WG47); experiment: biochemical; assay type: biochemical
Sequence of Mtb gyrase (P9WG45 whole entry, looked up): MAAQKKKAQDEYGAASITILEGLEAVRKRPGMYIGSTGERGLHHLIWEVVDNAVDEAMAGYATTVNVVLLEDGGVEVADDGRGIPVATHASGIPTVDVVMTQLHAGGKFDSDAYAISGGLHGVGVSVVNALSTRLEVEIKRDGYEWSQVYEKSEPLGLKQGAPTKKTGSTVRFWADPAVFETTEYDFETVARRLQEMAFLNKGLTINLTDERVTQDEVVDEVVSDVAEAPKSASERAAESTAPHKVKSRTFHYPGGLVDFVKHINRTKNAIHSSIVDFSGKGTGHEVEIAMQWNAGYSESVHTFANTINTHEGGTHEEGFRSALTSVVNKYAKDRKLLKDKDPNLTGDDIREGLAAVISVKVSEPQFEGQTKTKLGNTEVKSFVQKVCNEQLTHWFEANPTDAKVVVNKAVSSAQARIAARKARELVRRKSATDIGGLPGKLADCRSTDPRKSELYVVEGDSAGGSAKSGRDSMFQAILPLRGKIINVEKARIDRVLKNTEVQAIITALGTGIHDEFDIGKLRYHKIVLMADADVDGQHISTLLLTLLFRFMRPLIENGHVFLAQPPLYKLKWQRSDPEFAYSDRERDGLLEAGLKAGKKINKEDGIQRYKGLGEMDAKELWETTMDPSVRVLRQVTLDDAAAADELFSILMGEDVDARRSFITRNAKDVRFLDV
Sequence of Mtb gyrase (P9WG47 whole entry, looked up): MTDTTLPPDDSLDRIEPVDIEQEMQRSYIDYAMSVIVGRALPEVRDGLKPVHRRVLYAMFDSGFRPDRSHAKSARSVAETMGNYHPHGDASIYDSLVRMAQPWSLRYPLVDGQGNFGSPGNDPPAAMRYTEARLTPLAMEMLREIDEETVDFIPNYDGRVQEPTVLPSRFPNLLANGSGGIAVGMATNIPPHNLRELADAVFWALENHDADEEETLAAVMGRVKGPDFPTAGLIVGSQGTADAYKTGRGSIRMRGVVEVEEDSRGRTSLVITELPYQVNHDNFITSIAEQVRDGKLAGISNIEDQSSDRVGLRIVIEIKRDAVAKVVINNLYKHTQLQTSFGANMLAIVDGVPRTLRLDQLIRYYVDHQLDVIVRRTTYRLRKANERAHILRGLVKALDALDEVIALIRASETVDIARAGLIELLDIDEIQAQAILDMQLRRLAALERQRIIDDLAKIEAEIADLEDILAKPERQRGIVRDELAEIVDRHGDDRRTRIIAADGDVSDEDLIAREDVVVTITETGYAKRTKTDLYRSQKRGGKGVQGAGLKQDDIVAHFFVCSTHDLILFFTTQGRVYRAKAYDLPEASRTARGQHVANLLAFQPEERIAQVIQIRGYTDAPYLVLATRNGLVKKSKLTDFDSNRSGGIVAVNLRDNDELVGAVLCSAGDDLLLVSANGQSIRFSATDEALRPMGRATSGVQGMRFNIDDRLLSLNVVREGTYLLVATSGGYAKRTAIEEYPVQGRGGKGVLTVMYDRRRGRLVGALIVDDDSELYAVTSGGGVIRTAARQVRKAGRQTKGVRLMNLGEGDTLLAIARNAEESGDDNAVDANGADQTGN

S. aureus ATTC 25923 [3] = tested on: S. aureus ATTC 25923
M. tuberculosis H37Rv = experiment: microbe, parasite or virus in culture; assay type: cell-based, Mycobacterium tuberculosis

Compound	MIC (S. aureus ATTC 25923 [1]) [µM]	Ratio (WT/hypomorph) MIC [2]	Ratio (WT/hypomorph) MIC50 [2]	other results
C[C@@H]1CN2c3c(cc4c(N5CC[C@H](O)C5)noc4c3F)CC3(C(=O)NC(=O)NC3=O)[C@H]2[C@H](C)N1C#N [Compound 40, (2R,4S,4aS)-11-fluoro-8-((S)-3-hydroxypyrrolidin-1-yl)-2,4-dimethyl-2’,4’,6’-trioxo-1,1’,2,3’,4,4a,4’,6’-octahydro-2’H,3H,6H-spiro[isoxazolo[4,5-g]pyrazino[1,2-a]quinoline-5,5’-pyrimidine]-3-carbonitrile]	> 125	2.0	3.1	IC50 (Mtb gyrase): 19 µM
C[C@@H]1CN2c3c(cc4c(N5C[C@H](O)[C@@H](O)C5)noc4c3F)CC3(C(=O)NC(=O)NC3=O)[C@H]2[C@H](C)O1 [Compound 11, (2R,4S,4aS)-8-((3S,4S)-3,4-dihydroxypyrrolidin-1-yl)-11-fluoro-2,4-dimethyl-1,2,4,4a-tetrahydro-2’H,6H-spiro[isoxazolo[4,5-g][1,4]oxazino[4,3-a]quinoline-5,5’-pyrimidine]-2’,4’,6’(1’H,3’H)-trione]	> 125			
C[C@@H]1CN2c3c(cc4c(N5C[C@@H](O)[C@H](O)C5)noc4c3F)CC3(C(=O)NC(=O)NC3=O)[C@H]2[C@H](C)O1 [Compound 10, (2R,4S,4aS)-8-((3R,4R)-3,4-dihydroxypyrrolidin-1-yl)-11-fluoro-2,4-dimethyl-1,2,4,4a-tetrahydro-2’H,6H-spiro[isoxazolo[4,5-g][1,4]oxazino[4,3-a]quinoline-5,5’-pyrimidine]-2’,4’,6’(1’H,3’H)-trione]		2.1	2.9	Mtb gyrase IC50 fold higher (less potent) than moxifloxacin (Mtb gyrase): ≤ 2 fold
C[C@@H]1CN2c3c(cc4c(OC[C@H]5CCC(=O)N5)noc4c3F)CC3(C(=O)NC(=O)NC3=O)[C@H]2[C@H](C)O1 [Compound 24, (2R,4S,4aS)-11-fluoro-2,4-dimethyl-8-(((R)-5-oxopyrrolidin-2-yl)methoxy)-1,2,4,4a-tetrahydro-2’H,6H-spiro[isoxazolo[4,5-g][1,4]oxazino[4,3-a]quinoline-5,5’-pyrimidine]-2’,4’,6’(1’H,3’H)-trione]	> 125			
C[C@@H]1CN2c3c(cc4c(OC[C@@H]5COC(=O)N5)noc4c3F)CC3(C(=O)NC(=O)NC3=O)[C@H]2[C@H](C)O1 [Compound 28, (2R,4S,4aS)-11-fluoro-2,4-dimethyl-8-(((R)-2-oxooxazolidin-4-yl)methoxy)-1,2,4,4a-tetrahydro-2’H,6H-spiro[isoxazolo[4,5-g][1,4]oxazino[4,3-a]quinoline-5,5’-pyrimidine]-2’,4’,6’(1’H,3’H)-trione]	63 (≈ 31.7 µg/mL)			
C[C@@H]1CN2c3c(cc4c(N5CC[C@H](O)C5)noc4c3F)CC3(C(=O)NC(=O)NC3=O)[C@H]2[C@H](C)O1 [Compound 8, (2R,4S,4aS)-11-fluoro-8-((S)-3-hydroxypyrrolidin-1-yl)-2,4-dimethyl-1,2,4,4a-tetrahydro-2’H,6H-spiro[isoxazolo[4,5-g][1,4]oxazino[4,3-a]quinoline-5,5’-pyrimidine]-2’,4’,6’(1’H,3’H)-trione]		2.5	3.6	Mtb gyrase IC50 fold higher (less potent) than moxifloxacin (Mtb gyrase): ≤ 2 fold; fold less active against S. aureus than zoliflodacin (S. aureus ATTC 25923 [3]): > 200 fold
(2R,4S,4aS)-11-fluoro-2,4-dimethyl-8-((S)-3-(methylamino)pyrrolidin-1-yl)-1,2,4,4a-tetrahydro-2’H-spiro[isoxazolo[5’,4’:4,5]benzo[1,2-b][1,4]oxazino[4,3-d][1,4]oxazine-5,5’-pyrimidine]-2’,4’,6’(1’H,3’H)-trione [Compound 17]				Mtb MIC (M. tuberculosis H37Rv): 63 µM; fold higher Mtb MIC compared to 8 (M. tuberculosis H37Rv): 9 to16 fold; Sau MIC (S. aureus ATTC 25923 [3]): 125 µM
